Data on 1 compound can be found in US20220041641A1, “QUATERNARY AMMONIUM SALTS AS INHIBITORS OF TRIMETHYLAMINE PRODUCTION” (Senda Biosciences, Inc., priority 2018, published 2022).

Data set [1] can be described thus: Caco-2 permeability assay. The format is in vitro ADME. The conditions noted are these: human, Caco-2, pH 7.4. (Caco-2 cells form a polarised layer with tight junctions and transporters.)
A further data set is described as follows: in vivo. Particulars: Sprague-Dawley, rat. Details: species or system Sprague-Dawley rats.

By Papp A→B is commonly meant the apparent permeability from the apical to the basolateral side of a cell layer. Low values mean slow passage, high ones fast passage. The term Papp B→A denotes the apparent permeability from the basolateral to the apical side of a cell layer. The term Cmax denotes the peak of the concentration-time curve. Broadly, the bioavailability is the share of a dose that reaches the circulation, judged against a reference dose that is usually intravenous. Read a high bioavailability as much systemic uptake.

On to `CC(=O)OC[C@H]1O[C@@H](OCC[N+](C)(C)C2CC2)[C@H](OC(C)=O)[C@@H](OC(C)=O)[C@@H]1OC(C)=O.[I-]` [Compound 80, N,N-dimethyl-N-(2-{[(3R,4S,5R,6R)-3,4,5-tris(acetyloxy)-6-[(acetyloxy)methyl]oxan-2-yl]oxy}ethyl)cyclopropanaminium Iodide], for which, in data set [1], the Papp A→B at 2 h, 1 µM was 0.28 ×10⁻⁶ cm/s and the Papp B→A at 2 h, 1 µM is 0.313 ×10⁻⁶ cm/s. In “in vivo” (iv, 1 mg/kg), the Cmax turned out to be 7.68 µM and the “IV Cmax” value came out at 0 nM. For the same compound, in “in vivo” (po, 10 mg/kg), the “% F” value was found to be 1.5% and the bioavailability was 0.68%.
